Source: patent publication US20160015730A1, “Treatment of Pulmonary Hypertension with Carbonic Anhydrase Inhibitors” (priority 2007, published 2016)

Tests used:
Type V phosphodiesterase = Type V phosphodiesterase (Homo sapiens, UniProt O76074); conditions: comparison with avanafil (and sildenafil); cited from earlier work
[1] = system: patients exhibiting similar symptoms with respect to pulmonary hypertension; assay: Examples 12-17: procedures of Examples 2 through 5 repeated with zonisamide or acetazolamide substituted for topiramate; type: in vivo, human
[2] = system: patient exhibiting similar symptoms with respect to pulmonary hypertension; assay: Examples 6-11: procedure of Example 1 repeated with zonisamide or acetazolamide substituted for topiramate; type: in vivo, human
[3] = system: patient with elevated pulmonary artery pressure (pulmonary hypertension); assay: Example 1 case report: patient with mildly elevated pulmonary artery pressure treated with bupropion and topiramate; type: in vivo, human
Description: They were 66″ tall, weight 282 lbs, BMI 46, initial BP 118/80. They had 2+ edema of both ankles, clear lungs, and a systolic murmur along the left sternal border, grade II/VI.
They were started on atorvastatin 10 mg daily as well as bupropion 150 mg daily and topiramate 200 mg daily along with a low fat, low carbohydrate diet and exercise. […] They lost weight continuously on the program and 4 months later had lost 20 lbs. […] After six months, the patient temporarily discontinued the medications. Within a few days, even though their weight was the same, their chest pressure and shortness of breath on exertion returned. On resumption of the treatment, the symptoms resolved within a few days.

[4] = system: patient with probable mild pulmonary hypertension; assay: Example 3 case report: patient with probable mild pulmonary hypertension treated with phentermine and topiramate; type: in vivo, human
Description: The third patient was a person with obesity, hypertension, elevated cholesterol, heart murmur and dyspnea on exertion. Their medications were atorvastatin 10 mg daily, captopril 12.5 mg daily, trazodone 50 mg daily, spironolactone 50 mg daily, and bupropion 150 mg daily. They were 64″ tall, weight 319 lbs, BMI 55, initial BP 148/76.
They were treated with phentermine 15 mg daily and topiramate 200 mg daily along with a low fat, low carbohydrate diet and exercise. They were instructed to stop both the spironolactone and captopril since this weight loss treatment results in marked lowering of blood pressure in most patients. […] Blood pressure one week later was 140/86 and weight 317 lbs.

[5] = system: patient with pulmonary hypertension; assay: Example 2 case report: patient with pulmonary hypertension treated with phentermine and topiramate; type: in vivo, human; conditions: topiramate 200 mg daily with phentermine 15 mg daily
Description: The second patient was a person with obesity, hypothyroidism, hypertension, valvular heart disease, elevated cholesterol and depression. Their medications were levothyroxine 50 mcg daily, metoprolol 50 mg daily, venlafaxine 37.5 mg daily, progesterone 100 mg daily, esterified estrogens 1.25 mg daily, and methyltestosterone 2.5 mg daily. They were 63″ tall, weight 178 lbs, BMI 32, initial BP 120/78. They had trace edema of both ankles and a systolic murmur of I/VI along the left sternal border. […] A comment on the report stated that this was a slight increase in pulmonary pressure compared with an echocardiogram taken seven months earlier.
They were treated with phentermine 15 mg daily and topiramate 200 mg daily along with a low fat, low carbohydrate diet and exercise. Metoprolol was discontinued after four months due to low blood pressure. Eight months after treatment started, their weight was 165 lbs, BP was 122/76, and they had no edema. […] No MR was seen.

[6] = system: patient with pulmonary hypertension; assay: Example 5 case report: patient with COPD and pulmonary hypertension treated with phentermine and topiramate; type: in vivo, human; conditions: topiramate 100 mg daily with phentermine 15 mg daily
Description: The fifth patient was a person with obesity, diabetes, hypertension, hypothyroidism, elevated cholesterol, COPD, and pulmonary hypertension. […] They had stopped smoking 1PPD about 10 years previously. Their baseline medications were verapamil 240 mg daily, losartan-HCTZ 50-12.5 daily, levothyroxine 0.125 mg daily, Pulmicort […] 2 puffs twice daily, Foradil powder […] twice daily, metformin 500 mg twice daily, atorvastatin 10 mg daily, fluticasone nasal spray 50 mcg 2 puffs daily and vitamins. They were short of breath with minimal exertion. They were 67″ tall, weight 228 lbs, BMI 36, initial BP 138/70.
They were treated with phentermine 15 mg daily and topiramate 100 mg daily. Three years into treatment, their fasting glucose is 106 off metformin compared with 114 on metformin at baseline, their blood pressure is 115/60 on valsartan 80 mg daily and diltiazem CD 120 mg daily (changed from verapamil because of constipation). Their weight has been stable for six months in the low 180's.

[7] = system: patient with known pulmonary hypertension; assay: Example 4 case report: patient with known pulmonary hypertension and sleep apnea treated with bupropion, topiramate and phentermine; type: in vivo, human; conditions: topiramate 100 mg daily with bupropion 300 mg
Description: The fourth patient was a person with obesity, sleep apnea on CPAP, known pulmonary hypertension with PA pressure estimated at 76 mm Hg by echocardiogram, valvular heart disease (mild-moderate tricuspid and mitral regurgitation), depression and hypertension. They smoked just under half pack of cigarettes per day and was a CO2 retainer by ABG's with a PCO2 of 54 mm Hg on room air. They were short of breath with minimal exertion. Their baseline medications were furosemide 80 mg daily, potassium chloride 20 mEq daily, lisinopril 10 mg daily, carvedilol 25 mg BID, escitalopram 10 mg daily, alprazolam 0.5 mg TID, and nightly oxygen. They were 68″ tall, weight 284 lbs, BMI 43½, initial BP 122/76. They had 1+ edema of both lower legs and was short of breath on exertion.
They were treated with aspirin 81 mg coated daily, bupropion 300 mg daily, topiramate 100 mg daily, phentermine 5 mg daily, along with a low fat, low carbohydrate diet and light exercise. By the first 4 weeks of follow-up, they had lost 17 lbs and was breathing much better. […] They were still smoking cigarettes occasionally. They had lost 38 lbs. Their blood pressure was 110/70 on only lisinopril 10 mg daily. Furosemide and carvedilol had been gradually discontinued due to improved edema, blood pressure, and breathing. An echocardiogram performed at three months into the program was mostly unchanged from their prior echocardiogram except that the pulmonary artery pressure was reported as normal. This change was consistent with their clinical picture.

[8] = system: patients with pulmonary hypertension; assay: Summary of the five patients of Examples 1-5; type: in vivo, human
Source text: However, the improvement in pulmonary pressures appeared to be independent of weight loss in these patients.

CCCc1nn(C)c2c(=O)[nH]c(-c3cc(S(=O)(=O)N4CCN(C)CC4)ccc3OCC)nc12 [sildenafil]
potency as phosphodiesterase inhibitor relative to avanafil (Type V phosphodiesterase): approximately twice as potent as avanafil

NS(=O)(=O)Cc1noc2ccccc12 [zonisamide]
results relative to Examples 2 through 5 ([1]; 25 mg, 50 mg, and 100 mg zonisamide substituted for topiramate): Substantially the same results | results relative to Example 1 ([2]; Example 6, 25 mg zonisamide substituted for the topiramate): Substantially the same results | results relative to Example 1 ([2]; Example 7, 50 mg zonisamide substituted for the topiramate): Substantially the same results | results relative to Example 1 ([2]; Example 8, 100 mg zonisamide substituted for the topiramate): Substantially the same results

CC(=O)Nc1nnc(S(N)(=O)=O)s1 [acetazolamide]
results relative to Examples 2 through 5 ([1]; 100 mg, 250 mg, and 500 mg acetazolamide substituted for topiramate): Substantially the same results | results relative to Example 1 ([2]; Example 9, 100 mg acetazolamide substituted for the topiramate): Substantially the same results | results relative to Example 1 ([2]; Example 10, 250 mg acetazolamide substituted for the topiramate): Substantially the same results | results relative to Example 1 ([2]; Example 11, 500 mg acetazolamide substituted for the topiramate): Substantially the same results

CC1(C)O[C@@H]2[C@@H](CO[C@@]3(COS(N)(=O)=O)OC(C)(C)O[C@@H]23)O1 [topiramate]
chest pressure and shortness of breath on exertion after discontinuing the medications ([3]; medications temporarily discontinued after six months, within a few days, weight the same): returned | exercise tolerance ([3]; person, topiramate 200 mg daily with bupropion 150 mg daily, atorvastatin 10 mg daily, diet and exercise, two weeks after start): markedly improved | symptoms on resumption of the treatment ([3]; resumption of topiramate 200 mg/bupropion 150 mg treatment, within a few days): resolved | chest pressure and shortness of breath on exertion ([3]; topiramate 200 mg daily with bupropion 150 mg daily, atorvastatin 10 mg daily, two weeks after start): gone | weight lost ([3]; topiramate 200 mg daily with bupropion 150 mg daily, atorvastatin, diet and exercise, 4 months, baseline 282 lbs): 20 lbs | pulmonary pressures (echocardiogram) ([3]; topiramate 200 mg daily with bupropion 150 mg daily, 2 weeks after start of treatment, baseline 36 mm Hg): normal | echocardiogram findings of pulmonary hypertension ([4]; person, topiramate 200 mg daily with phentermine 15 mg daily (bupropion 150 mg daily at baseline), three weeks, before significant weight loss, baseline probable mild pulmonary hypertension): no findings of pulmonary hypertension | weight ([4]; topiramate 200 mg daily with phentermine 15 mg daily, four weeks, baseline 319 lbs): 317 lbs | blood pressure ([4]; topiramate 200 mg daily with phentermine 15 mg daily, four weeks, spironolactone and captopril stopped, baseline 148/76): 140/86 | weight ([5]; person, diet and exercise, eight months, baseline 178 lbs): 165 lbs | edema ([5]; eight months, baseline trace edema of both ankles): no edema | BP ([5]; eight months, metoprolol discontinued, baseline 120/78): 122/76 | pulmonary artery pressure (echocardiogram) ([5]; nine months on treatment, baseline 39 mm Hg): 33 mm Hg | mitral regurgitation (MR, echocardiogram) ([5]; nine months on treatment, baseline mild MR): No MR | tricuspid regurgitation (echocardiogram) ([5]; nine months on treatment, baseline moderate TR): mild | fasting glucose ([6]; person, three years, off metformin, baseline 114 on metformin): 106 | pulmonary pressures (echocardiogram) ([6]; 30 months into treatment, baseline 45-50 mm Hg): normal | symptoms ([6]; exercising more without shortness of breath): symptomatically much better | weight ([6]; three years, stable for six months, baseline 228 lbs): low 180's | blood pressure ([6]; three years, on valsartan 80 mg and diltiazem CD 120 mg daily, baseline 138/70): 115/60 | weight lost ([7]; person, phentermine 5 mg, aspirin 81 mg daily, diet, light exercise, first 4 weeks, baseline 284 lbs): 17 lbs | blood pressure ([7]; phentermine 5 mg daily, four months, on only lisinopril 10 mg daily, baseline 122/76): 110/70 | pulmonary artery pressure (echocardiogram) ([7]; phentermine 5 mg daily, three months, baseline estimated 76 mm Hg): normal | breathing ([7]; phentermine 5 mg, aspirin 81 mg daily, first 4 weeks): much better | weight lost ([7]; phentermine 5 mg, aspirin 81 mg daily, four months): 38 lbs | clinical status ([7]; phentermine 5 mg, aspirin 81 mg daily, four months, able to exercise normally without shortness of breath): clinically markedly improved | symptomatic improvement ([8]; all patients): symptomatic improvement in all patients | improvement in pulmonary hypertension ([8]; topiramate with phentermine and/or bupropion, diet and weight loss program): surprising improvement
